Key:
Type in all cases: in vivo
barnyard grass (Eo) [1] = assay: Test Example 1: herbicidal effects by flooded paddy field treatment; settings: dose 100 gai/10a, examined on 21st day after treatment, index 0-5 per Table 44;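 also: 0-5 growth inhibition grade; 5 = over 90%; 4 = 70-90%; 3 = 50-70%; 2 = 30-50%; 1 = 10-30%; 0 = under 10%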
In short: (§1)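 Puddled paddy soil in pots, seeds sown, 3 cm flood. Day after sowing: wettable powder diluted in water, applied dropwise to water surface, 100 g a.i./10 ares. Greenhouse; visual herbicidal rating at day 21 post-treatment.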

monochoria (Mo) [2] = assay: as above; settings: dose 100 gai/10a, examined on 21st day after treatment, index 0-5 per Table 44
In short: as §1

barnyard grass (Ec) [3] = assay: Test Example 2: herbicidal effects by upland soil treatment; set-up: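 0-5 growth inhibition grade; 5 = over 90%; 4 = 70-90%; 3 = 50-70%; 2 = 30-50%; 1 = 10-30%; 0 = under 10%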; settings: dose 100 g active ingredient per 10 ares, examined on the 21st day after treatment, standards of Table 44
In short: (§2)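 Pre-emergence test: barnyard grass and green foxtail sown in upland soil, then soil surface sprayed with wettable-powder formulation at 100 g active ingredient per 10 ares (100 l per 10 ares). Grown in greenhouse; herbicidal effect scored on a rating scale 21 days after treatment.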

green foxtail (Se) = assay: as above; settings: dose 100 g active ingredient per 10 ares, examined on the 21st day after treatment, standards of Table 44;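 also: 0-5 growth inhibition grade; 5 = over 90%; 4 = 70-90%; 3 = 50-70%; 2 = 30-50%; 1 = 10-30%; 0 = under 10%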
In short: as §2

barnyard grass (Ec) [4] = assay: Test Example 3: herbicidal effects by foliage treatment in upland field; set-up: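 0-5 growth inhibition grade; 5 = over 90%; 4 = 70-90%; 3 = 50-70%; 2 = 30-50%; 1 = 10-30%; 0 = under 10%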; settings: dose 100 g active ingredient per 10 ares, examined on the 14th day after treatment
In short: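 Barnyard grass and green foxtail were grown in upland soil for 2 weeks in a greenhouse. A water-diluted wettable powder was sprayed over the foliage at 100 l per 10 ares, giving 100 g active ingredient per 10 ares. Herbicidal effect was scored on day 14 after treatment.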

barnyard grass (Ec) [5] = assay: Test Example 5: selectivity for a crop plant by soil treatment in upland field; set-up: scale not given here; settings: dose 25 gai/10a, 21st day after treatment, index per Table 44
Procedure: (§3) In a 80 cm^2 plastic pot, upland soil was filled, and seeds of barnyard grass (Ec), green foxtail (Se), soybean (G1), wheat (Tr) and corn (Ze) were sown and covered with soil. A wettable powder prepared in accordance with Formulation Example 1 was diluted with water and uniformly applied to the soil surface by a small size spray at a rate of 100 l per 10 ares so that the dose of the active ingredient would be 25 g per 10 ares. Thereafter, cultivation was carried out in a green house, and on the 21st day after the treatment, the herbicidal effects were examined in accordance with the standards of Table 44.

corn (Ze) = assay: as above; set-up: scale not given here; settings: dose 25 gai/10a, 21st day after treatment, index per Table 44
Procedure: as §3

soybean (G1) = assay: as above; set-up: scale not given here; settings: dose 25 gai/10a, 21st day after treatment, index per Table 44
Procedure: as §3

wheat (Tr) = assay: as above; set-up: scale not given here; settings: dose 25 gai/10a, 21st day after treatment, index per Table 44
Procedure: as §3

barnyard grass (Eo) [6] = assay: Test Example 4: selectivity for a crop plant by flooded paddy field treatment; set-up: scale not given here; settings: dose 25 g active ingredient per 10 ares, examined on the 21st day after treatment
In short: (§4)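 Flooded paddy pots, 3 cm water; weeds sown from seed, rice transplanted at 2nd-leaf stage. Day after: wettable powder diluted in water, applied dropwise to water surface, 25 g a.i./10 a. Greenhouse; herbicidal effect rated at day 21.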

monochoria (Mo) [7] = assay: as above; set-up: scale not given here; settings: dose 25 g active ingredient per 10 ares, examined on the 21st day after treatment
In short: as §4

rice (Or) = assay: as above; set-up: scale not given here; settings: rice transplanted at second leaf stage, dose 25 g active ingredient per 10 ares, examined on the 21st day after treatment
In short: as §4
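For Herbicidal effect index, Mo in this document: 0-5 growth inhibition grade; 5 = over 90%; 4 = 70-90%; 3 = 50-70%; 2 = 30-50%; 1 = 10-30%; 0 = under 10%.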

| SMILES | Herbicidal effect index, Eo (barnyard grass (Eo) [1]) | Herbicidal effect index, Mo (monochoria (Mo) [2]) | herbicidal effects, Ec (barnyard grass) (barnyard grass (Ec) [3]) | herbicidal effects, Se (green foxtail) (green foxtail (Se)) | Ec (herbicidal effects, index) (barnyard grass (Ec) [4]) | Ec (herbicidal effect index) (barnyard grass (Ec) [5]) | Ze (herbicidal effect index on crop) (corn (Ze)) | Gl (herbicidal effect index on crop) (soybean (G1)) | Tr (herbicidal effect index on crop) (wheat (Tr)) | Eo (herbicidal effects, index) (barnyard grass (Eo) [6]) | Mo (herbicidal effects, index) (monochoria (Mo) [7]) | Or (effect on crop plant rice, index) (rice (Or)) |
| --- | --- | --- | --- | --- | --- | --- | --- | --- | --- | --- | --- | --- |
| CCC(C)C(c1cncnc1C(F)(F)F)N(C)C(=O)Cc1ccc(F)cc1 (mixture of isomers) [Compound 1-58] | 5 | 5 | 5 | 5 | 4 | 5 | 0 | 0 | 3 | – | – | – |
| CCC(c1cncnc1C(F)(F)F)N(C)C(=O)Cc1ccc(F)cc1 (racemic) [Compound 1-33] | 5 | 5 | 5 | 5 | – | 4 | 1 | 0 | 2 | 5 | 5 | 1 |
| CC(C)C(c1cncnc1C(F)(F)F)N(C)C(=O)Cc1ccc(Cl)c(Cl)c1 (racemic) [Compound 1-45] | 5 | 5 | 5 | 5 | – | 4 | 0 | 0 | 2 | 5 | 5 | 0 |
| CCCN(C(=O)Cc1ccc(Cl)cc1)C(c1cncnc1C(F)(F)F)C(C)C (racemic) [Compound 1-49] | 5 | 5 | 5 | 4 | – | 5 | 3 | 1 | 0 | 5 | 5 | 0 |
| Cc1cccc(CC(=O)N(C)C(c2cncnc2C(F)(F)F)C(C)C)c1 (racemic) [Compound 1-51] | 5 | 5 | 5 | 5 | – | 5 | 0 | 0 | 1 | 5 | 5 | 1 |
| Cc1ncncc1C(C(C)C)N(C)C(=O)Cc1ccc(Cl)cc1 (racemic) [Compound 1-56] | 5 | 5 | 5 | 5 | 4 | 5 | 3 | 0 | 4 | – | – | – |
| CC(C)c1ccc(CC(=O)N(C)C(c2cncnc2C(F)(F)F)C(C)C)cc1 (racemic) [Compound 1-68] | 5 | 5 | 5 | 5 | – | 4 | 2 | 0 | 2 | – | – | – |
| CC(C)C(c1cncnc1C(F)(F)F)N(C)C(=O)Cc1cccc(Br)c1 (racemic) [Compound 1-70] | 5 | 5 | 5 | 5 | – | 5 | 1 | 1 | 4 | – | – | – |

Source: patent publication US6806230B1, “Pyrimidine derivatives and herbicides containing them” (Kumiai Chemical Industry Co., Ltd., priority 1999, dated 2004)
